# Measured values taken from PubChem BioAssay AID330 (DTP/NCI, 2004).
# Where “and” joins values, the source holds several entries; their conditions need not be identical. Identical values can stand only once. Inconclusive results and toxic doses are left out.
# System: P388 leukemia ip, CD2F1 mice, survival T/C
# Assay: NCI In Vivo Anticancer Drug Screen. Data for tumor model P388 Leukemia (intraperitoneal) in CD2F1 (CDF1) mice
# Details: endpoint: median survival time, higher = longer survival
# Summary of the method: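 Mice carrying the transplanted tumor received test compound or vehicle. Survival was recorded in each group, and the value is the treated-group measurement divided by that of the vehicle-treated control group.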
# [1] = dose: 50.0 mg/kg/injection, schedule: Q01DX005 (ip), vehicle: Klucel (hydroxypropylcellulose) (HPC)
# [2] = dose: 100.0 mg/kg/injection, schedule: Q01DX005 (ip), vehicle: Klucel (hydroxypropylcellulose) (HPC)
# [3] = dose: 200.0 mg/kg/injection, schedule: Q01DX005 (ip), vehicle: Klucel (hydroxypropylcellulose) (HPC)
# [4] = dose: 12.5 mg/kg/injection, schedule: Q01DX009 (ip), vehicle: saline
# [5] = dose: 50.0 mg/kg/injection, schedule: Q01DX009 (ip), vehicle: saline
# [6] = dose: 50.0 mg/kg/injection, schedule: Q01DX009 (ip), vehicle: Klucel (hydroxypropylcellulose) (HPC)
# [7] = dose: 100.0 mg/kg/injection, schedule: Q01DX009 (ip), vehicle: Klucel (hydroxypropylcellulose) (HPC)
# [8] = dose: 200.0 mg/kg/injection, schedule: Q01DX009 (ip), vehicle: Klucel (hydroxypropylcellulose) (HPC)
# [9] = dose: 50.0 mg/kg/injection, schedule: Q01DX005 (ip), vehicle: saline
# [10] = dose: 100.0 mg/kg/injection, schedule: Q01DX005 (ip), vehicle: saline
# [11] = dose: 200.0 mg/kg/injection, schedule: Q01DX005 (ip), vehicle: saline
# [12] = dose: 100.0 mg/kg/injection, schedule: Q01DX009 (ip), vehicle: saline
# [13] = dose: 200.0 mg/kg/injection, schedule: Q01DX009 (ip), vehicle: saline
# [14] = dose: 50.0 mg/kg/injection, schedule: Q01DX009 (ip), vehicle: saline with Tween-80
# [15] = dose: 100.0 mg/kg/injection, schedule: Q01DX009 (ip), vehicle: saline with Tween-80
# [16] = dose: 60.0 mg/kg/injection, schedule: Q01DX005 (ip), vehicle: saline with Tween-80
# [17] = dose: 120.0 mg/kg/injection, schedule: Q01DX005 (ip), vehicle: saline with Tween-80
# [18] = dose: 240.0 mg/kg/injection, schedule: Q01DX005 (ip), vehicle: saline with Tween-80
# [19] = dose: 50.0 mg/kg/injection, schedule: Q01DX005 (ip), vehicle: saline with Tween-80
# [20] = dose: 100.0 mg/kg/injection, schedule: Q01DX005 (ip), vehicle: saline with Tween-80
# [21] = dose: 200.0 mg/kg/injection, schedule: Q01DX005 (ip), vehicle: saline with Tween-80
smiles,measurement,setting,value
Cc1ccc([N+](=O)[O-])cc1O,T/C,"dose: 25.0 mg/kg/injection, schedule: Q01DX009 (ip), vehicle: other",95 % of control
same,T/C,"dose: 50.0 mg/kg/injection, schedule: Q01DX009 (ip), vehicle: other",100 % of control
same,T/C,"dose: 100.0 mg/kg/injection, schedule: Q01DX009 (ip), vehicle: other",110 % of control
CC(C)(C)OC(=O)NC(Cc1ccc(OCc2ccccc2)cc1)C(=O)ON1C(=O)CCC1=O (centres undefined),T/C,[1],93 % of control
same,T/C,[2],88 % of control
same,T/C,[3],100 % of control
O=NNc1ccc(Sc2ccc(NN=O)cn2)nc1,T/C,"dose: 3.12 mg/kg/injection, schedule: Q01DX009 (ip), vehicle: saline",100 % of control
same,T/C,"dose: 6.25 mg/kg/injection, schedule: Q01DX009 (ip), vehicle: saline",107 % of control
same,T/C,[4],114 % of control
same,T/C,[5],122 % of control
CC1(C)CC(OS(=O)(=O)c2ccc(Br)cc2)CC(C)(C)N1O,T/C,[6],93 % of control
same,T/C,[7],99 % of control
same,T/C,[8],97 % of control
C=C1CCN(c2cccc(Cl)c2)C1=O,T/C,"dose: 4.0 mg/kg/injection, schedule: Q01DX009 (ip), vehicle: saline + alcohol",96 % of control
same,T/C,"dose: 8.0 mg/kg/injection, schedule: Q01DX009 (ip), vehicle: saline + alcohol",101 % of control
same,T/C,"dose: 16.0 mg/kg/injection, schedule: Q01DX009 (ip), vehicle: saline + alcohol",100 % of control
same,T/C,"dose: 32.0 mg/kg/injection, schedule: Q01DX009 (ip), vehicle: saline + alcohol",105 % of control
same,T/C,"dose: 64.0 mg/kg/injection, schedule: Q01DX009 (ip), vehicle: saline + alcohol",100 % of control
CC(C)C1OCN2CCCCC12 (centres undefined),T/C,[9],105 % of control
same,T/C,[10],108 % of control
same,T/C,[11],116 % of control
Cn1c(CC(O)c2nc3ccccc3n2C)nc2ccccc21 (centres undefined),T/C,[6],98 % of control
same,T/C,[5],114 % of control
same,T/C,[7],105 % of control
same,T/C,[12],112 % of control
same,T/C,[8],98 % of control
same,T/C,[13],107 % of control
CN(C)c1ncnc2c1cnn2C,T/C,[14],109 % of control
same,T/C,"dose: 50.0 mg/kg/injection, schedule: Q04DX003 (ip), vehicle: saline sonified",100 % of control
same,T/C,"dose: 100.0 mg/kg/injection, schedule: Q04DX003 (ip), vehicle: saline sonified",100 % of control
same,T/C,"dose: 200.0 mg/kg/injection, schedule: Q04DX003 (ip), vehicle: saline sonified",109 % of control
CC(=O)OC(OC(C)=O)c1ccc([N+](=O)[O-])s1,T/C,[6],109 % of control
same,T/C,[7],87 % of control
COC(=O)C1=C(C)NC(C)=C(C(=O)OC)C(N2C(=O)CCC2=O)C1 (centres undefined),T/C,"dose: 12.5 mg/kg/injection, schedule: Q01DX009 (ip), vehicle: saline with Tween-80",100 % of control
same,T/C,"dose: 25.0 mg/kg/injection, schedule: Q01DX009 (ip), vehicle: saline with Tween-80",91 % of control
same,T/C,[14],88 % of control
same,T/C,[15],88 % of control
COc1cc(C(c2cc3c(cc2OC(C)=O)OCO3)C(C)C(C)=O)cc(OC)c1OC (centres undefined),T/C,[16],102 % of control
same,T/C,[17],108 % of control
same,T/C,[18],111 % of control
O=C1N(c2ccccc2)N=C2CCCCCCCCCCC12O (centres undefined),T/C,[1],93 % of control
same,T/C,[2],97 % of control
same,T/C,[3],94 % of control
O=S(=O)(OCCCl)c1cc(Cl)c(Cl)cc1Cl,T/C,[1],105 % of control
same,T/C,[2],114 % of control
same,T/C,[3],90 % of control
CCOc1ccc2nc3cc(N=Nc4c(C)c(CN(CC)CC)cc(C)c4O)ccc3c(N)c2c1,T/C,[14],108 % of control
same,T/C,[15],100 % of control
same,T/C,"dose: 200.0 mg/kg/injection, schedule: Q01DX009 (ip), vehicle: saline with Tween-80",106 % of control
Oc1cc2c(cc1C(c1ccc(Cl)cc1)N1CCCCC1)OCO2 (centres undefined),T/C,[16],117 % of control
same,T/C,[17],118 % of control
same,T/C,[18],119 % of control
FC(F)(F)c1c[nH]cc1C(F)(F)F,T/C,"dose: 50.0 mg/kg/injection, schedule: Q04DX002 (ip), vehicle: Klucel (hydroxypropylcellulose) (HPC)",109 % of control
CC(=O)O/C(C)=C1\CCn2c1nc1ccccc1c2=O,T/C,[16],104 % of control
same,T/C,[17],107 % of control
same,T/C,[18],101 % of control
Nc1nnc2nc(C(C(=O)c3ccc(F)cc3)c3nc4nnc(N)n4[nH]c3=O)c(=O)[nH]n12,T/C,[19],98 % of control
same,T/C,[20],92 % of control
same,T/C,[21],91 % of control
COc1ccc(C(=NCCc2ccccc2)c2ccccc2)c(O)c1,T/C,"dose: 100.0 mg/kg/injection, schedule: Q04DX002 (ip), vehicle: saline with Tween-80",100 % of control
same,T/C,"dose: 200.0 mg/kg/injection, schedule: Q04DX002 (ip), vehicle: saline with Tween-80",98 % of control
same,T/C,"dose: 400.0 mg/kg/injection, schedule: Q04DX002 (ip), vehicle: saline with Tween-80",100 % of control
O=S1(F)=NP(N2CC2)(N2CC2)=NP(N2CC2)(N2CC2)=N1 (centres undefined),T/C,"dose: 5.0 mg/kg/injection, schedule: Q04DX003 (ip), vehicle: saline",86 % of control
same,T/C,"dose: 10.0 mg/kg/injection, schedule: Q04DX003 (ip), vehicle: saline",102 % of control
same,T/C,"dose: 20.0 mg/kg/injection, schedule: Q04DX003 (ip), vehicle: saline",86 % of control
same,T/C,"dose: 40.0 mg/kg/injection, schedule: Q04DX003 (ip), vehicle: saline",234 % of control
COC(=O)c1ccccc1N=NNc1ccccc1C(N)=O,T/C,"dose: 100.0 mg/kg/injection, schedule: Q04DX003 (ip), vehicle: saline with Tween-80",90 % of control
same,T/C,"dose: 200.0 mg/kg/injection, schedule: Q04DX003 (ip), vehicle: saline with Tween-80",97 % of control
same,T/C,"dose: 400.0 mg/kg/injection, schedule: Q04DX003 (ip), vehicle: saline with Tween-80",99 % of control
CC(C)CC(Nc1nncs1)Nc1nncs1,T/C,[16],96 % of control
same,T/C,[17],90 % of control
same,T/C,[18],100 % of control
CCCCNc1cc(Nc2ccc(Br)cc2)nc(N)n1,T/C,"dose: 6.25 mg/kg/injection, schedule: Q04DX003 (ip), vehicle: saline with Tween-80",106 % of control
same,T/C,"dose: 12.5 mg/kg/injection, schedule: Q04DX003 (ip), vehicle: saline with Tween-80",99 % of control
same,T/C,"dose: 25.0 mg/kg/injection, schedule: Q04DX003 (ip), vehicle: saline with Tween-80",106 % of control
same,T/C,"dose: 50.0 mg/kg/injection, schedule: Q04DX003 (ip), vehicle: saline with Tween-80",100 % of control
c1cnc2c(OCCOCCOCCOCCOc3cccc4cccnc34)cccc2c1,T/C,[19],90 % of control
same,T/C,[20],90 % of control
same,T/C,[21],98 % of control
NCC(=O)O.[Cl-].[Cl-].[Cl-].[Cl-].[Pt+2],T/C,[4],124 % of control
same,T/C,"dose: 14.7 mg/kg/injection, schedule: Q01DX009 (ip), vehicle: saline",108 % of control
same,T/C,"dose: 22.0 mg/kg/injection, schedule: Q01DX009 (ip), vehicle: saline",108 % of control
O=C1C=C(NCc2nc3ccccc3[nH]2)C(c2ccccc2)N1c1ccccc1 (centres undefined),T/C,[1],100 % of control
same,T/C,[2],96 % of control
same,T/C,[3],93 % of control
COc1cccc2c1C(=O)C1=C(C2=O)c2c(O)cc(CO)cc2C(O)C1O (centres undefined),T/C,"dose: 6.25 mg/kg/injection, schedule: Q01DX005 (ip), vehicle: saline + Tween-80 + alcohol",113 % of control
same,T/C,"dose: 12.5 mg/kg/injection, schedule: Q01DX005 (ip), vehicle: saline + Tween-80 + alcohol",113 % of control
same,T/C,"dose: 25.0 mg/kg/injection, schedule: Q01DX005 (ip), vehicle: saline + Tween-80 + alcohol",120 % of control
O=C(O)C(CCc1ccccc1)NCc1ccccc1 (centres undefined),T/C,"dose: 25.0 mg/kg/injection, schedule: Q01DX009 (ip), vehicle: saline",102 % of control
same,T/C,[5],88 % of control
same,T/C,[12],88 % of control and 94 % of control
same,T/C,[13],95 % of control
same,T/C,"dose: 400.0 mg/kg/injection, schedule: Q01DX009 (ip), vehicle: saline",89 % of control
Nc1cnc(CO)nc1C(=O)O,T/C,[9],100 % of control
same,T/C,[10],102 % of control
same,T/C,[11],107 % of control
CCCCCCCCCCCCSC1COC2C(SCCCCCCCCCCCC)COC12 (centres undefined),T/C,[19],100 % of control
same,T/C,[20],96 % of control
same,T/C,[21],99 % of control
